Data published in patent publication US8486920B2, “Composition and method for controlling plant diseases” (priority 2008, dated 2013).
Where two headings read alike, the source gives them in different places.

System: Pythium ultimum, pathogen of cucumber damping-off
Type: in vivo
Conditions: cucumber (Sagamihanjiro) seed treatment, 18° C., 13 days
Text: An acetone solution of ethaboxam and an acetone solution of tolclofos-methyl were mixed to prepare mixed liquids containing ethaboxam and tolclofos-methyl in predetermined concentration. These mixed liquids were adhered on the surface of cucumber (Sagamihanjiro) seeds and allowed to stand still overnight. A plastic pot was filled with sandy soil and the seeds were disseminated on it. Then the seeds were covered with sandy soil which had been mixed with a bran medium on which Pythium ultimum, pathogen of cucumber damping-off, had been allowed to grow. They were irrigated and allowed to grow at 18° C. under humidity for 13 days, and thereafter control effect was checked.
As a comparison, acetone solutions containing ethaboxam in the predetermined concentration and acetone solutions containing tolclofos-methyl in the predetermined concentration were prepared and subjected to similar tests.
The incidence of disease was calculated by Equation 1 and the control value was calculated by Equation 2 based on the incidence of disease.
A: Incidence of disease of plant in untreated area
B: Incidence of disease of plant in treated area
E=X+Y−(X×Y)/100 “Equation 2”

SMILES	Actual control value (ethaboxam alone 5 g ai/100 kg-seed) [%]	Actual control value (ethaboxam alone 10 g ai/100 kg-seed) [%]	Actual control value (tolclofos-methyl alone 100 g ai/100 kg-seed) [%]	Actual control value (tolclofos-methyl alone 200 g ai/100 kg-seed) [%]
CCNc1nc(CC)c(C(=O)NC(C#N)c2cccs2)s1 (stereo not shown) [Ethaboxam]	25	58	–	–
COP(=S)(OC)Oc1c(Cl)cc(C)cc1Cl [tolclofos-methyl]	–	–	0.0	0.0
